Measurements taken from BindingDB's records for doi:10.7270/Q26W98HW (Burnham Center For Chemical Genomics, 2009).

What follows are compounds tested against Eukaryotic translation initiation factor 4H (Homo sapiens, UniProt Q15056) (assay: human eIF4H binding inhibitors, primary screen, translation initiation inhibitor project, biochemical, uHTS, fluorescence polarization (AID 2012)).
Compound `COc1cc(C)cc(C(=O)O)c1C1C(=O)C(=O)c2c(O)cccc2C1=O` (centres undefined) [MLS000877007] has an IC50 of 5.43 µM.
For `O=C1N=c2ccccc2=C1NNC(=O)c1cc(-c2cccs2)n[nH]1` [N'-(2-oxoindol-3-yl)-5-thiophen-2-yl-1H-pyrazole-3-carbohydrazide], the IC50 was 11.5 µM.
For `COc1ccc(CN=Nc2nc(O)c(CC(=O)O)s2)cc1OCc1ccc(Cl)cc1Cl` [[2-({3-[(2,4-dichlorobenzyl)oxy]-4-methoxybenzylidene}hydrazono)-4-oxo-1,3-thiazolidin-5-yl]acetic acid], the IC50 was 14.7 µM.
Compound `O=C(O)c1ccc(N=NCc2cc3c(cc2[N+](=O)[O-])OCO3)cc1` has an IC50 of 21.8 µM.
For `CCn1c(=NC(=O)c2ccc(-n3c(O)ccc3O)cc2)sc2c(OC)ccc(OC)c21` [4-[2,5-bis(oxidanylidene)pyrrolidin-1-yl]-N-(3-ethyl-4,7-dimethoxy-1,3-benzothiazol-2-ylidene)benzamide], the IC50 was 14.7 µM.
`CC1(C)Oc2ccc3ccc(=O)oc3c2C(CN=O)=C1Cl` [9-chloro-2-keto-8,8-dimethyl-pyrano[2,3-f]chromene-10-carbaldehyde oxime] showed an IC50 of 100 µM.
`CC1=NC(=O)NC(c2ccco2)C1C(=O)OC(C)C` (centres undefined) [SMR000120838] gave an IC50 of 34.7 µM.
Compound `COc1ccc2c(c1)=C(NNC(=O)Cc1cccs1)C(=O)N=2` has an IC50 of 11 µM.
`CC[N+](C)(CC)CCCC(N=O)C(O)(c1ccccc1)c1ccccc1` (centres undefined) [diethyl-(5-hydroxy-4-hydroxyimino-5,5-diphenylpentyl)-methylammonium;iodide] gave an IC50 of 100 µM.
